These compounds were tested against T1, recombinant human GST-SYK (Homo sapiens, UniProt P43405) (assay: Homogeneous Time-Resolved Fluorescence (HTRF) assay for the recombinant human Syk enzyme). Settings: HTRF assay, recombinant human GST-SYK; IC50 given as class symbols; read-out: rhSYK Activity.
T1 construct: purchased Carna Biosciences 08-176
Format: biochemical
Description: Homogeneous Time-Resolved Fluorescence (HTRF) Assay for the Recombinant Human Syk Enzyme
A recombinant GST-hSYK fusion protein was used to measure potency of compounds to inhibit human Syk activity. The recombinant human GST-SYK (Carna Biosciences #08-176) ([…]) was incubated with various concentrations of the inhibitor diluted in DMSO (0.1% final concentration) for 10 minutes at room temperature in 15 mM Tris-HCl (pH 7.5), 0.01% tween 20, 2 mM DTT in 384 well plate format. To initiate the reaction the biotinylated substrate peptide (250 nM final concentration) that contains the phosphorylation site for Syk was added with magnesium (5 mM final concentration) and ATP (25 μM final concentration). Final volume of the reaction was 10 μL. Phosphorylation of the peptide was allowed to proceed for 45′ at room temperature. To quench the reaction and detect the phosphorylated product, 2 nM of a Europium-anti-phosphotyrosine antibody (Perkin Elmer #AD0161) and 70 nM SA-APC (Perkin-Elmer #CR130-100) were added together in 15 mM Tris pH 7.5, 40 mM EDTA, 0.01% tween 20. Final volume of the quenching solution was 10 μL. The resulting HTRF signal was measured after 30 minutes on an EnVision (Perkin-Elmer) reader using a time-resolved fluorescence protocol.

Structure (SMILES) | IC50 [nM]
Cc1cc(Nc2nccc(C(F)(F)F)n2)cc(-c2ccc(NC(CO)C(=O)O)nc2)c1 (stereo not drawn) [Example 7.69, N-[5-(3-methyl-5-{[4-(trifluoromethyl)pyrimidin-2-yl]amino}phenyl)pyridin-2-yl]serine] | < 100
Cc1cc(Nc2nccc(C(F)(F)F)n2)cc(-c2ccc(N[C@H](Cc3csc4ccccc34)C(=O)O)nc2)c1 [Example 7.79, 3-(1-benzothiophen-3-yl)-N-[5-(3-methyl-5-{[4-(trifluoromethyl)pyrimidin-2-yl]amino}phenyl)pyridin-2-yl]-D-alanine] | < 100
Cc1cc(Nc2nccc(C(F)(F)F)n2)cc(-c2cncc(C(F)(F)F)c2)c1 [Example 2.54, N-{3-methyl-5-[5-(trifluoromethyl)pyridin-3-yl]phenyl}-4-(trifluoromethyl)pyrimidin-2-amine] | 100 to 1000
CNCc1ccc(-c2cc(C)cc(Nc3nccc(C(F)(F)F)n3)c2)cn1 [Example 2.49, N-(3-methyl-5-{6-[(methylamino)methyl]pyridin-3-yl}phenyl)-4-(trifluoromethyl)pyrimidin-2-amine] | < 100
Cc1cc(Nc2nccc(C(F)(F)F)n2)cc(-c2ccc(C(=O)NC3(CO)CC3)nc2)c1 [Example 16.8, N-[1-(hydroxymethyl)cyclopropyl]-5-(3-methyl-5-{[4-(trifluoromethyl)pyrimidin-2-yl]amino}phenyl)pyridine-2-carboxamide] | 100 to 1000
Cc1cc(Nc2nccc(C(F)(F)F)n2)cc(-c2ccc(NCCN)nc2)c1 [Example 7.25A, N-[5-(3-methyl-5-{[4-(trifluoromethyl)pyrimidin-2-yl]amino}phenyl)pyridin-2-yl]ethane-1,2-diamine] | < 100
Cc1cc(Nc2nccc(C3CC3)n2)cc(-c2ccc(C(C)(O)[C@H]3CC[C@H](C(=O)O)CC3)nc2)c1 (single isomer, unassigned) [Example 9.19, trans-4-[(1R or 1S)-1-(5-{3-[(4-cyclopropylpyrimidin-2-yl)amino]-5-methylphenyl}pyridin-2-yl)-1-hydroxyethyl]cyclohexanecarboxylic acid] | < 100
O=C(O)CCc1cncc(-c2cccc(Nc3nccc(C(F)(F)F)n3)c2)c1 [Example 2.79, 3-[5-(3-{[4-(trifluoromethyl)pyrimidin-2-yl]amino}phenyl)pyridin-3-yl]propanoic acid] | < 100
Cc1cc(Nc2nccc(C)n2)cc(-c2ccc(C3(O)CCC(C(=O)O)C(C)(C)C3)nc2)c1 (stereo not drawn) [Example 9.39, 4-hydroxy-2,2-dimethyl-4-(5-{3-methyl-5-[(4-methylpyrimidin-2-yl)amino]phenyl}pyridin-2-yl)cyclohexanecarboxylic acid] | < 100
Cc1cc(Nc2nccc(C(F)(F)F)n2)cc(-c2ccc(/C=C/C(=O)O)nc2)c1 [Example 22.2, 3-[5-(3-Methyl-5-{[4-(trifluoromethyl)pyrimidin-2-yl]amino}phenyl)pyridin-2-yl]prop-2-enoic acid] | < 100
Cc1cc(Nc2nccc(C(F)(F)F)n2)cc(-c2ccc(N3C[C@H](O)C[C@H]3C(=O)O)nc2)c1 [Example 7.105, (4R)-4-hydroxy-1-[5-(3-methyl-5-{[4-(trifluoromethyl)pyrimidin-2-yl]amino}phenyl)pyridin-2-yl]-L-proline] | < 100
Cc1cc(Nc2nccc(C(F)(F)F)n2)cc(-c2ccc(C(=O)N3CCNC(=O)C3)nc2)c1 [Example 16.4, 4-{[5-(3-Methyl-5-{[4-(trifluoromethyl)pyrimidin-2-yl]amino}phenyl)pyridin-2-yl]carbonyl}piperazin-2-one] | < 100
Cc1cc(Nc2ncc(Br)c(C(F)(F)F)n2)cc(-c2ccc(NC(C)(C)C(=O)O)nc2)c1 [Example 7.152] | < 100
Cc1cc(Nc2nccc(C(F)(F)F)n2)cc(-c2ccc(C34CCC(C(=O)O3)C(C)(C)C4)nc2)c1 (single isomer, unassigned) [Example 9.9, (1R,4S or 1S,4R)-5,5-dimethyl-1-[5-(3-methyl-5-{[4-(trifluoromethyl)pyrimidin-2-yl]amino}phenyl)pyridin-2-yl]-2-oxabicyclo[2.2.2]octan-3-one] | 100 to 1000
Cc1cc(Nc2nccc(C(F)(F)F)n2)cc(-c2ccc(N[C@H](C)C(=O)O)nc2)c1 [Example 7.89, N-[5-(3-methyl-5-{[4-(trifluoromethyl)pyrimidin-2-yl]amino}phenyl)pyridin-2-yl]-D-alanine] | < 100
Cc1cc(Nc2nccc(C(F)(F)F)n2)cc(-c2ccc(C(=O)N(C)Cc3n[nH]c(=O)[nH]3)nc2)c1 [Example 16.51, N-methyl-5-(3-methyl-5-{[4-(trifluoromethyl)pyrimidin-2-yl]amino}phenyl)-N-[(5-oxo-4,5-dihydro-1H-1,2,4-triazol-3-yl)methyl]pyridine-2-carboxamide] | < 100

Structure (SMILES) | IC50 [nM]
Cc1cc(Nc2nccc(C(F)(F)F)n2)cc(-c2ccc(N3CCNC(=O)C3)nc2)c1 [Example 7.67, 4-[5-(3-methyl-5-{[4-(trifluoromethyl)pyrimidin-2-yl]amino}phenyl)pyridin-2-yl]piperazin-2-one] | < 100
CNC(=O)C1CCCN1c1ccc(-c2cc(C)cc(Nc3nccc(C(F)(F)F)n3)c2)cn1 (stereo not drawn) [Example 7.65, N-methyl-1-[5-(3-methyl-5-{[4-(trifluoromethyl)pyrimidin-2-yl]amino}phenyl)pyridin-2-yl)prolinamide] | 100 to 1000
Cc1ccnc(Nc2cccc(-c3ccc(N[C@H]4CC[C@H](C(=O)O)CC4)nc3)c2)n1 [Example 2.107, trans-4-[(5-{3-[(4-methylpyrimidin-2-yl)amino]phenyl}pyridin-2-yl)amino]cyclohexanecarboxylic acid] | < 100
Cc1cc(Nc2nccc(C(F)(F)F)n2)cc(-c2ccc(C(F)(F)CO)nc2)c1 [Example 2.117, 2,2-difluoro-2-[5-(3-methyl-5-{[4-(trifluoromethyl)pyrimidin-2-yl]amino}phenyl)pyridin-2-yl]ethanol] | < 100
CCCOC1CCCN(c2ccc(-c3cc(C)cc(Nc4nccc(C(F)(F)F)n4)c3)cn2)C1 (stereo not drawn) [Example 7.63, N-{3-methyl-5-[6-(3-propoxypiperidin-1-yl)pyridin-3-yl]phenyl}-4-(trifluoromethyl)pyrimidin-2-amine] | 100 to 1000
Cc1cc(Nc2nccc(C(F)(F)F)n2)cc(-c2ccc(N[C@H]3CCC(=O)NC3)nc2)c1 [Example 7.52, (5S)-5-{[5-(3-methyl-5-{[4-(trifluoromethyl)pyrimidin-2-yl]amino}phenyl)pyridin-2-yl]amino}piperidin-2-one] | < 100
Cc1cc(Nc2nccc(C3CC3)n2)cc(-c2ccnc(CCC(=O)O)c2)c1 [Example 2.137, 3-(4-{3-[(4-cyclopropylpyimidin-2-yl)amino]-5-methylphenyl}pyridin-2-yl)propanoic acid] | < 100
Nc1cc(Nc2nccc(C(F)(F)F)n2)cc(-c2ccncc2)c1 [Example 6.4, 5-pyridin-4-yl-N-[4-(trifluoromethyl)pyrimidin-2-yl]benzene-1,3-diamine] | < 100
COc1ccnc(Nc2cc(C)cc(-c3ccc(CCC(=O)O)cn3)c2)n1 [Example 2.26, 3-(6-{3-[(4-methoxypyrimidin-2-yl)amino]-5-methylphenyl}pyridin-3-yl)propanoic acid] | 100 to 1000
Cc1cc(Nc2nccc(C(F)(F)F)n2)cc(-c2ccc(C3(O)CCC(C(=O)O)C(C)(C)C3)nc2)c1 (single isomer, unassigned) [Example 9.8, (1S,4R or 1R,4S)-4-hydroxy-2,2-dimethyl-4-[5-(3-methyl-5-{[4-(trifluoromethyl)pyrimidin-2-yl]amino}phenyl)pyridin-2-yl]cyclohexanecarboxylic acid] | < 100
CCC(C)(Nc1ccc(-c2cc(C)cc(Nc3nccc(C(F)(F)F)n3)c2)cn1)C(=O)O (stereo not drawn) [Example 18.6] | < 100
COC(=O)c1cncc(-c2cc(C)cc(Nc3nccc(C(F)(F)F)n3)c2)c1 [Example 2.53, methyl 5-(3-methyl-5-{[4-(trifluoromethyl)pyrimidin-2-yl]amino}phenyl)pyridine-3-carboxylate] | 100 to 1000
Cc1cc(Nc2nccc(C(F)(F)F)n2)cc(-c2cnc(NC(C)(C)C(=O)O)c(C(F)(F)F)c2)c1 [Example 7.123, 2-methyl-N-[5-(3-methyl-5-{[4-(trifluoromethyl)pyrimidin-2-yl]amino}phenyl)-3-(trifluoromethyl)pyridin-2-yl]alanine] | < 100
CNC(=O)CNc1ccc(-c2cc(C)cc(Nc3nccc(C(F)(F)F)n3)c2)cn1 [Example 7.29, N-methyl-N~2~-[5-(3-methyl-5-{[4-(trifluoromethyl)pyrimidin-2-yl]amino}phenyl)pyridin-2-yl]glycinamide] | < 100
Cc1cc(Nc2nccc(C(F)(F)F)n2)cc(-c2ccnc(N3CCC4(CCCC(=O)N4)CC3)c2)c1 [Example 15.25, 9-[4-(3-methyl-5-{[4-(trifluoromethyl)pyrimidin-2-yl]amino}phenyl)pyridin-2-yl]-1,9-diazaspiro[5.5]undecan-2-one] | 100 to 1000
Cc1cc(Nc2nccc(C)n2)cc(-c2cccc(CCC(=O)O)n2)c1 [Example 2.35, 3-(6-{3-methyl-5-[(4-methylpyrimidin-2-yl)amino]phenyl}pyridin-2-yl)propanoic acid] | 100 to 1000

Same assay, conditions: recombinant GST-hSYK, 25 μM ATP, HTRF; read-out: IC50 (inhibition of human Syk activity)

Structure (SMILES) | IC50 [nM]
CCCOC1CCCN(c2ccc(-c3cc(C)cc(Nc4nccc(C(F)(F)F)n4)c3)cn2)C1 (stereo not drawn) [Example 7.63, N-{3-methyl-5-[6-(3-propoxypiperidin-1-yl)pyridin-3-yl]phenyl}-4-(trifluoromethyl)pyrimidin-2-amine] | 700
